# The source made the active and inactive calls. The calls are words filed in the database; no cut-off is given here.
# Key:
# [1] = (§1) Antiproliferative activity against patient-derived IgM-stimulated CLL cells after 3 days by CellTiter-Glo assay; format: functional, cell-based; conditions: Homo sapiens, 72 h
# [2] = biological target: T1, Phosphatidylinositol 4,5-bisphosphate 3-kinase catalytic subunit delta isoform (Homo sapiens, UniProt O00329); assay: Inhibition of human PI3Kdelta (R108 to Q1044 residues) expressed in mammalian expression system incubated for 60 mins by ADAPTA assay
# T1 sequence (O00329 whole entry): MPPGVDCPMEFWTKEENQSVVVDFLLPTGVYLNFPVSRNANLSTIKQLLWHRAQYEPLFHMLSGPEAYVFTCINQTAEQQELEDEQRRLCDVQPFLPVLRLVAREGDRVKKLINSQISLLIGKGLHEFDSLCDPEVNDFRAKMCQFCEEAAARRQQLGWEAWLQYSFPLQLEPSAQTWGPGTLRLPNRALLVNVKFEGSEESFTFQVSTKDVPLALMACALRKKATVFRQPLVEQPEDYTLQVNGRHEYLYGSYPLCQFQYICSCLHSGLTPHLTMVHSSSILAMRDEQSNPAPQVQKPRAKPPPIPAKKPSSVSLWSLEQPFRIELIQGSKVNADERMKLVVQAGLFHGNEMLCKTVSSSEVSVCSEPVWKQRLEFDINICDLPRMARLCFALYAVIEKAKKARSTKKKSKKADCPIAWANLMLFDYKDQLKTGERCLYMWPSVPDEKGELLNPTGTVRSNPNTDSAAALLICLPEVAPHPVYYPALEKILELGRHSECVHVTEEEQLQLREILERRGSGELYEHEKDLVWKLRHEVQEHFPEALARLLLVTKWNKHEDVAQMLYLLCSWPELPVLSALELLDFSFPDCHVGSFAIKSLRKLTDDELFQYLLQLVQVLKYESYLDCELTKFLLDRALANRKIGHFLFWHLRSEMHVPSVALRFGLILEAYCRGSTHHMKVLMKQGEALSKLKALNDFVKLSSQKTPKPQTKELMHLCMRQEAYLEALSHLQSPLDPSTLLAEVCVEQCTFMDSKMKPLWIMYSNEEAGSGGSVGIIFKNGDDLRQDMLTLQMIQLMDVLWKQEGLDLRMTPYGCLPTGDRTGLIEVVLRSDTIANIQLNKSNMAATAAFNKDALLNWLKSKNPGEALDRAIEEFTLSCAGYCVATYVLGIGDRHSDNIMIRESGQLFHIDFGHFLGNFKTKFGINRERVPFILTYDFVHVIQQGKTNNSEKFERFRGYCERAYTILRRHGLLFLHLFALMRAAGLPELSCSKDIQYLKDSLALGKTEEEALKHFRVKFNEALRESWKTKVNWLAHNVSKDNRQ
# [3] = biological target: Phosphatidylinositol 4,5-bisphosphate 3-kinase catalytic subunit gamma isoform (Homo sapiens, UniProt P48736); assay: Inhibition of human PI3Kgamma (S144 to A1102 residues) expressed in mammalian expression system incubated for 60 mins by ADAPTA assay
# Phosphatidylinositol 4,5-bisphosphate 3-kinase catalytic subunit gamma isoform, sequence (P48736 whole entry, the tested form may be a part, canonical isoform): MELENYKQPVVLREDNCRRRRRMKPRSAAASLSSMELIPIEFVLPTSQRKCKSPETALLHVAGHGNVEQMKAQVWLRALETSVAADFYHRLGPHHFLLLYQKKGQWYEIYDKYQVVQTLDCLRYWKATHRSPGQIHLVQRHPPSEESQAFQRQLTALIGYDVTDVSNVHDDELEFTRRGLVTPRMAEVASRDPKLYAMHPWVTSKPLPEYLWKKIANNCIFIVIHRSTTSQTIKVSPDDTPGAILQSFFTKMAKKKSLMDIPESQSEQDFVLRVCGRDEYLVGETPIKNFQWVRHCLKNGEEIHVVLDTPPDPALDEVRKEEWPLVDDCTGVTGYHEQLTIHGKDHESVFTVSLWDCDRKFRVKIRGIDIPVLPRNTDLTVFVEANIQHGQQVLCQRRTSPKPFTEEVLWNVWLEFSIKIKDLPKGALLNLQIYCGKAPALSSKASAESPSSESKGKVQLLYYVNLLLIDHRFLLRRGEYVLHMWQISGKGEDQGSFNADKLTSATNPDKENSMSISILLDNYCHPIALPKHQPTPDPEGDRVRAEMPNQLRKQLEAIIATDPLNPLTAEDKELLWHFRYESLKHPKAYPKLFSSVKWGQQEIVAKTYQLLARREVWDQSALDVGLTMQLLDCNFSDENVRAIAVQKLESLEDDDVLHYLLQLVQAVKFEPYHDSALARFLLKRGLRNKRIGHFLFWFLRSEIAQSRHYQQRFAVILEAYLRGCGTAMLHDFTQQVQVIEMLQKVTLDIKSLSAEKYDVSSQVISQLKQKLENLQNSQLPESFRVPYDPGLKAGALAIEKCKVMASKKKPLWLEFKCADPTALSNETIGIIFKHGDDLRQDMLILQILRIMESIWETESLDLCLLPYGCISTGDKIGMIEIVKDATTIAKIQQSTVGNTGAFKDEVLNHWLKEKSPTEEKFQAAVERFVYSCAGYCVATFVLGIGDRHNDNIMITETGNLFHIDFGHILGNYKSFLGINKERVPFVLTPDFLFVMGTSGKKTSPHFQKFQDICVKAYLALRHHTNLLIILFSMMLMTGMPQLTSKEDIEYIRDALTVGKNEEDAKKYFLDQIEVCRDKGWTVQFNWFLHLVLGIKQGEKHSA
# [4] = Antiproliferative activity against human MOLM14 cells after 3 days by CellTiter-Glo assay; format: functional, cell-based; conditions: MOLM-14, 72 h
# [5] = Antiproliferative activity against human MOLT4 cells after 3 days by CellTiter-Glo assay; format: functional, cell-based; conditions: MOLT-4, 72 h
# [6] = Antiproliferative activity against human MV4-11 cells after 3 days by CellTiter-Glo assay; format: functional, cell-based; conditions: MV4-11, 72 h
# [7] = Antiproliferative activity against human Jurkat cells after 3 days by CellTiter-Glo assay; format: functional, cell-based; conditions: 72 h
# CLL = assay: as §1; format: functional, cell-based; conditions: Homo sapiens
# [8] = Antiproliferative activity against human Loucy cells after 3 days by CellTiter-Glo assay; format: functional, cell-based; conditions: 72 h
# [9] = biological target: T2, Phosphatidylinositol 5-phosphate 4-kinase type-2 gamma (Homo sapiens) (UniProt Q8TBX8); assay: Inhibition of human PIP5K2C (M1 to A421 residues) expressed at 1 uM
# T2 sequence (whole entry): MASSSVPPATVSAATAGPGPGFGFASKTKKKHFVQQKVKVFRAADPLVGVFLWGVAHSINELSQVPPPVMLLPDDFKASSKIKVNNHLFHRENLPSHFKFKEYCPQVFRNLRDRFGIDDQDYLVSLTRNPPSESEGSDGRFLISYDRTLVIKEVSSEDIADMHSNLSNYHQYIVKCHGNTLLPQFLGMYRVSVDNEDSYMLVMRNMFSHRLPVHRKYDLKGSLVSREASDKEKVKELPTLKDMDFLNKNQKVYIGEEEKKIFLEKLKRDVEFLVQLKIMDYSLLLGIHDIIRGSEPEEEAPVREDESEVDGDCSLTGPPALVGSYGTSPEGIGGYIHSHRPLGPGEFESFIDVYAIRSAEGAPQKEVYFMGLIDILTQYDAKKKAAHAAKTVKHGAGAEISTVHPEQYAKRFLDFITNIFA
# Aurora kinase A = biological target: T3, Aurora kinase A (Homo sapiens, UniProt O14965); assay: Inhibition of human Aurora kinase A (E122 to K401 residues) expressed in mammalian expression system by Z'LYTE assay
# T3 sequence (O14965 whole entry): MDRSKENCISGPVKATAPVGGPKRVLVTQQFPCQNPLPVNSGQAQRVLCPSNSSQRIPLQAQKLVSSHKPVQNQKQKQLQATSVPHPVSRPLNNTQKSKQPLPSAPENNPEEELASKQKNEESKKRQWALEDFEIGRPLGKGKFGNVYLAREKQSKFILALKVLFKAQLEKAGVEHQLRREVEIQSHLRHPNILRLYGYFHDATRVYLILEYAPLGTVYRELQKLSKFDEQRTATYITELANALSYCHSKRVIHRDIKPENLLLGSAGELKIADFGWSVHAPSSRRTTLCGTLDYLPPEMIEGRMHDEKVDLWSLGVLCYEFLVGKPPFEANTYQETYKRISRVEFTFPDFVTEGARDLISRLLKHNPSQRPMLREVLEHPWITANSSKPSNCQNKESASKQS
# Aurora kinase B = Aurora kinase B (Homo sapiens, UniProt Q96GD4); assay: Inhibition of human Aurora kinase B (D25 to A303 residues) expressed in mammalian expression system by Z'LYTE assay
# Aurora kinase B, sequence (Q96GD4 whole entry, the tested form may be a part, canonical isoform): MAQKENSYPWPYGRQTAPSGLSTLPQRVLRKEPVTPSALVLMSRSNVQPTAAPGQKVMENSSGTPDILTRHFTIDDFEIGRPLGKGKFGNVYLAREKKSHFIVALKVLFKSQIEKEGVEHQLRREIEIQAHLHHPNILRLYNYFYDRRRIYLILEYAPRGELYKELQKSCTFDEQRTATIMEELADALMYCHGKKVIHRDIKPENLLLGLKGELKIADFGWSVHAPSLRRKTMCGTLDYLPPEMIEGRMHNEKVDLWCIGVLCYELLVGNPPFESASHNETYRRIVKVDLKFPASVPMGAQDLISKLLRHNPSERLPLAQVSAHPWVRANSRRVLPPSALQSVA
# [10] = biological target: Phosphatidylinositol 4,5-bisphosphate 3-kinase catalytic subunit beta isoform (Homo sapiens) (UniProt P42338); assay: Inhibition of p110beta in HMEC assessed as reduction in Akt phosphorylation at Ser-473 residue at 0.01 to 1 uM after 1 hr by Western blot analysis
# Phosphatidylinositol 4,5-bisphosphate 3-kinase catalytic subunit beta isoform (Homo sapiens), sequence (P42338 whole entry, looked up, canonical isoform): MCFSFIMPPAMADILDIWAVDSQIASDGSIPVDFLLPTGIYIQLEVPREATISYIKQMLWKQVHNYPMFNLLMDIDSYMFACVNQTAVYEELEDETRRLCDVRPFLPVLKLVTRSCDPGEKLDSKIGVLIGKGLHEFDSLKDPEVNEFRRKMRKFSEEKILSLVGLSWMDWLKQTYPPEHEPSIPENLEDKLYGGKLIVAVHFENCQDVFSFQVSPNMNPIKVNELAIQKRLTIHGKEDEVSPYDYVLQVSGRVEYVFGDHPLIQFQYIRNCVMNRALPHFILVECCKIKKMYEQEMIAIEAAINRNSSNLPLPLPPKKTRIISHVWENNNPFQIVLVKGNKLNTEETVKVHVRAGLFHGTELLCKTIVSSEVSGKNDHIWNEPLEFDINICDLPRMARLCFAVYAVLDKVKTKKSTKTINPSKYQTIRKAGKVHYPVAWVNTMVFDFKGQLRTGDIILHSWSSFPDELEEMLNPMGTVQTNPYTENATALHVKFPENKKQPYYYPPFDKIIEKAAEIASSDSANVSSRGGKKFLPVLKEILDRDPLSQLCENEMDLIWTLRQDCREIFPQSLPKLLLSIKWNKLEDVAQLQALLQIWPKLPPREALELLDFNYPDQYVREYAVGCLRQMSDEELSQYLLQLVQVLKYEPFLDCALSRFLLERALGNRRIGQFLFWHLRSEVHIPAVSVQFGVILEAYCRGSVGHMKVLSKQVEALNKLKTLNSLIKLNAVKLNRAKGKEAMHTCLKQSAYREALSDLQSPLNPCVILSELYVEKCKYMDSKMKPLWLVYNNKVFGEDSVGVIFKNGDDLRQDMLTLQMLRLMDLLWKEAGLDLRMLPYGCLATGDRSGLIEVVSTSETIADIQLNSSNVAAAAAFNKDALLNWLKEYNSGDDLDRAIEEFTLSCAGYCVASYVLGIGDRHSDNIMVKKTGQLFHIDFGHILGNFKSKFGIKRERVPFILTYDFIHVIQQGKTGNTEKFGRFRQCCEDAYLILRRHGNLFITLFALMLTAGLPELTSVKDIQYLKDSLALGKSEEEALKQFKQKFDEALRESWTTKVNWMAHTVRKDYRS
# [11] = biological target: Phosphatidylinositol 4,5-bisphosphate 3-kinase catalytic subunit beta isoform (Homo sapiens) (UniProt P42338); assay: Inhibition of p110beta in HMEC assessed as reduction in S6RP phosphorylation at Ser-235/236 residue at 0.01 to 1 uM after 1 hr by Western blot analysis
# [12] = biological target: Phosphatidylinositol 4,5-bisphosphate 3-kinase catalytic subunit beta isoform (Homo sapiens) (UniProt P42338); assay: Inhibition of p110beta in HMEC assessed as reduction in Akt phosphorylation at Thr-308 residue at 0.01 to 1 uM after 1 hr by Western blot analysis
SMILES,IC50 [2] [nM],IC50 [3] [nM],also measured
CC[C@H](Nc1ncnc2[nH]cnc12)c1nc2cccc(F)c2c(=O)n1-c1ccccc1 [IDELALISIB],,,IC50 [1]: > 10000 nM
C=CC(=O)N1CCN(S(=O)(=O)c2ccc(Nc3ncc4c(n3)N(C)c3ccc(C)cc3C(=O)N4C)cc2)CC1,230,110,
CCC(=O)N1CCN(S(=O)(=O)c2cccc(Nc3ncc4c(n3)N(C)c3ccc(C)cc3C(=O)N4C)c2)CC1,1.7,11,IC50 [4]: 610 nM; IC50 [5]: 1200 nM; IC50 [6]: 960 nM; IC50 [7]: 1600 nM; Activity (CLL): Dose-dependent effect; IC50 [1]: 3000 nM; IC50 [8]: 720 nM
C=CC(=O)NC1CCN(S(=O)(=O)c2ccc(Nc3ncc4c(n3)N(C)c3ccc(C)cc3C(=O)N4C)cc2)CC1,120,49,
C=CC(=O)N1CCN(S(=O)(=O)c2cccc(Nc3ncc4c(n3)N(C)c3ccc(C)cc3C(=O)N4C)c2)CC1,1.5,2.8,IC50 [5]: 33 nM; inhibition [9]: Active; IC50 [7]: 166 nM
Cc1ccc2c(c1)C(=O)N(C)c1cnc(Nc3cccc(S(=O)(=O)N4CCC(O)CC4)c3)nc1N2C,2.1,6.5,IC50 [4]: 1000 nM; IC50 [5]: 1300 nM; IC50 [6]: 620 nM; IC50 [7]: 1400 nM; IC50 [1]: > 10000 nM; IC50 [8]: 350 nM
C=CC(=O)Nc1ccc(NS(=O)(=O)c2ccc(Nc3ncc4c(n3)N(C)c3ccc(C)cc3C(=O)N4C)cc2)cc1,96,310,
C=CC(=O)NC1CCN(S(=O)(=O)c2cccc(Nc3ncc4c(n3)N(C)c3ccc(C)cc3C(=O)N4C)c2)CC1,20,120,IC50 (Aurora kinase A): 350 nM
Cc1ccc2c(c1)C(=O)N(C)c1cnc(Nc3ccc(S(=O)(=O)N4CCN(C)CC4)cc3)nc1N2C,2600,3300,
Cc1ccc2c(c1)C(=O)N(C)c1cnc(Nc3cccc(S(N)(=O)=O)c3)nc1N2C,76,110,
CN1C(=O)c2ccccc2N(C)c2nc(Nc3ccc(S(N)(=O)=O)cc3)ncc21,49,15,IC50 (Aurora kinase B): 13 nM; IC50 (Aurora kinase A): 4.8 nM
C=CC(=O)Nc1cccc(NS(=O)(=O)c2ccc(Nc3ncc4c(n3)N(C)c3ccc(C)cc3C(=O)N4C)cc2)c1,440,340,
Cc1cc(S(N)(=O)=O)ccc1Nc1ncc2c(n1)N(C)c1ccccc1C(=O)N2C,820,2400,IC50 (Aurora kinase B): 9400 nM; IC50 (Aurora kinase A): 4900 nM
C[C@H](Nc1ncnc2nc[nH]c12)c1cc2cccc(Cl)c2c(=O)n1-c1ccccc1 [DUVELISIB],,,IC50 [4]: 1200 nM; inhibition [10]: Active; IC50 [5]: 2300 nM; IC50 [6]: 4400 nM; inhibition [11]: Active; inhibition [12]: Active; IC50 [7]: 1900 nM; IC50 [1]: > 10000 nM; IC50 [8]: 980 nM
C=CC(=O)Nc1cccc(NS(=O)(=O)c2cccc(Nc3ncc4c(n3)N(C)c3ccc(C)cc3C(=O)N4C)c2)c1,39,330,
Cc1ccc2c(c1)C(=O)N(C)c1cnc(Nc3cccc(S(=O)(=O)N4CCN(C)CC4)c3)nc1N2C,51,560,
C=CC(=O)Nc1ccc(NS(=O)(=O)c2cccc(Nc3ncc4c(n3)N(C)c3ccc(C)cc3C(=O)N4C)c2)cc1,29,15,
Cc1ccc2c(c1)C(=O)N(C)c1cnc(Nc3ccc(S(N)(=O)=O)cc3)nc1N2C,30,20,IC50 (Aurora kinase B): 4.2 nM; IC50 (Aurora kinase A): 16 nM
Cc1ccc2c(c1)C(=O)N(C)c1cnc(Nc3ccc(S(=O)(=O)N4CCC(O)CC4)cc3)nc1N2C,41,58,
CN1C(=O)c2ccccc2N(C)c2nc(Nc3cccc(S(N)(=O)=O)c3)ncc21,4.1,4.3,IC50 (Aurora kinase B): 4.6 nM; IC50 (Aurora kinase A): 2.1 nM
